Data: ChEMBL document CHEMBL3739322, “Novel oxime-bearing coumarin derivatives act as potent Nrf2/ARE activators in vitro and in mouse model” (Eur J Med Chem, 2015)
The source made the active and inactive calls. No cut-off for these calls is given here.

Experiments:
[1] = molecular target: T1, Nuclear factor erythroid 2-related factor 2 (Homo sapiens) (UniProt Q16236); assay: Activation of Nrf2 in human HSC3-ARE9 cells assessed as increase of ARE-mediated GCLC protein expression after 24 hrs by Western blot analysis; assay type: cell-based
T1 sequence (whole entry): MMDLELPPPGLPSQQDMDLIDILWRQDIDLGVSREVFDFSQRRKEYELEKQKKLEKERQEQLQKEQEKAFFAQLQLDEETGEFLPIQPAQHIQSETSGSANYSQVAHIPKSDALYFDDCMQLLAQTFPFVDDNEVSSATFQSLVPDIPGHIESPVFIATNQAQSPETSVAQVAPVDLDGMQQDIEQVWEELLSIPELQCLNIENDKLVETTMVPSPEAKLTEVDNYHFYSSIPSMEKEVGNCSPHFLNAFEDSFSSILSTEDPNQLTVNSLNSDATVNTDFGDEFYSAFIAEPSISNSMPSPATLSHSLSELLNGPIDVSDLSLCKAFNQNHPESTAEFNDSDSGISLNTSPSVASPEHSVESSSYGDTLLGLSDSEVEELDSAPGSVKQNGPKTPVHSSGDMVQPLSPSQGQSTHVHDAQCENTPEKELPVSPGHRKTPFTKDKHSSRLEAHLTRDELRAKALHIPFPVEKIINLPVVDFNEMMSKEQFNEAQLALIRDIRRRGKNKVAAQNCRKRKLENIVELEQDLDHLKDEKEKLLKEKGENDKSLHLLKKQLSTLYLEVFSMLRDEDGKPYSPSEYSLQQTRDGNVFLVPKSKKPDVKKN

[2] = molecular target: T1, Nuclear factor erythroid 2-related factor 2 (Homo sapiens); assay: Activation of Nrf2 in human HSC3-ARE9 cells assessed as increase of ARE-mediated luciferase expression at 50 uM after 24 hrs in presence of p38 inhibitor SB203580; assay type: cell-based
[3] = Cytotoxicity against human HSC3 cells after 24 hrs by MTT assay; assay type: cell-based; conditions: hsc-3, 24 h
[4] = molecular target: T1, Nuclear factor erythroid 2-related factor 2 (Homo sapiens); assay: Activation of Nrf2 in human HSC3-ARE9 cells assessed as increase of ARE-mediated luciferase expression at 50 uM after 24 hrs in presence of PKC inhibitor Ro-31-8220; assay type: cell-based
HSC-3 = assay: Inhibition of t-BOOH-induced oxidative stress in human HSC3 cells assessed as intracellular ROS level at 50 uM after 24 hrs by DCF fluorescence assay; assay type: functional, cell-based
[5] = molecular target: T1, Nuclear factor erythroid 2-related factor 2 (Homo sapiens); assay: Activation of Nrf2 in human HSC3-ARE9 cells assessed as increase of ARE-mediated AKR1C2 mRNA expression at 50 uM after 24 hrs by RT-PCR analysis relative to control; assay type: cell-based
[6] = molecular target: T1, Nuclear factor erythroid 2-related factor 2 (Homo sapiens); assay: Activation of Nrf2 in human HSC3-ARE9 cells assessed as increase of ARE-mediated GR mRNA expression at 50 uM after 24 hrs by RT-PCR analysis relative to control; assay type: cell-based
[7] = molecular target: T1, Nuclear factor erythroid 2-related factor 2 (Homo sapiens); assay: Activation of Nrf2 in human HSC3-ARE9 cells assessed as increase of ARE-mediated Prx1 mRNA expression at 50 uM after 24 hrs by RT-PCR analysis relative to control; assay type: cell-based
Mus musculus [8] = assay: Induction of Nrf2-mediated cytoprotective activity in C57BL/6J mouse assessed as increase of AKR1C1 level in liver at 50 mg/kg, po qd for 7 days measured after 24 hrs of last dose; assay type: functional, organism-based
[9] = molecular target: T1, Nuclear factor erythroid 2-related factor 2 (Homo sapiens); assay: Activation of Nrf2 in human HSC3-ARE9 cells assessed as increase of ARE-mediated GCLC mRNA expression at 50 uM after 24 hrs by RT-PCR analysis relative to control; assay type: cell-based
[10] = molecular target: T1, Nuclear factor erythroid 2-related factor 2 (Homo sapiens); assay: Activation of Nrf2 in human HSC3-ARE9 cells assessed as increase of protein level in nucleus after 24 hrs by Western blot analysis; assay type: cell-based
[11] = Antioxidant activity assessed as DPPH radical scavenging activity; assay type: physicochemical
[12] = molecular target: T1, Nuclear factor erythroid 2-related factor 2 (Homo sapiens); assay: Activation of Nrf2 in human HSC3-ARE9 cells assessed as increase of ARE-mediated AKR1C1 mRNA expression at 50 uM after 24 hrs by RT-PCR analysis relative to control; assay type: cell-based
[13] = molecular target: T1, Nuclear factor erythroid 2-related factor 2 (Homo sapiens); assay: Activation of Nrf2 in human HSC3-ARE9 cells assessed as increase of ARE-mediated AKR1C1 protein expression after 24 hrs by Western blot analysis; assay type: cell-based
[14] = molecular target: T1, Nuclear factor erythroid 2-related factor 2 (Homo sapiens); assay: Activation of Nrf2 in human HSC3-ARE9 cells assessed as increase of ARE-mediated AKR1C3 mRNA expression at 50 uM after 24 hrs by RT-PCR analysis relative to control; assay type: cell-based
[15] = molecular target: T1, Nuclear factor erythroid 2-related factor 2 (Homo sapiens); assay: Increase of Nrf2 phosphorylation at ser-40 in human HSC3 cells at 50 uM after 24 hrs by Western blot analysis relative to control; assay type: cell-based; conditions: HSC-3
[16] = molecular target: T1, Nuclear factor erythroid 2-related factor 2 (Homo sapiens); assay: Activation of Nrf2 in human HSC3-ARE9 cells assessed as increase of ARE-mediated luciferase expression at 50 uM after 24 hrs in presence of MEK inhibitor U0126; assay type: cell-based
[17] = molecular target: T1, Nuclear factor erythroid 2-related factor 2 (Homo sapiens); assay: Activation of Nrf2 in human HSC3-ARE9 cells assessed as increase of ARE-mediated luciferase expression at 50 uM after 24 hrs in presence of PI3K inhibitor LY294002; assay type: cell-based
[18] = molecular target: T1, Nuclear factor erythroid 2-related factor 2 (Homo sapiens); assay: Activation of Nrf2 in human HSC3-ARE9 cells assessed as increase of ARE-mediated luciferase expression after 24 hrs; assay type: cell-based
Mus musculus [19] = assay: Induction of Nrf2-mediated cytoprotective activity in C57BL/6J mouse assessed as increase of GR level in liver at 50 mg/kg, po qd for 7 days measured after 24 hrs of last dose; assay type: functional, organism-based
Mus musculus [20] = assay: Toxicity in C57BL/6J mouse assessed as change in body weight at 50 mg/kg, po qd for 7 days; assay type: organism-based; conditions: in vivo, 168 h
[21] = molecular target: T1, Nuclear factor erythroid 2-related factor 2 (Homo sapiens); assay: Activation of Nrf2 in human HSC3-ARE9 cells assessed as increase of ARE-mediated NQO1 mRNA expression at 50 uM after 24 hrs by RT-PCR analysis relative to control; assay type: cell-based
Mus musculus [22] = assay: Induction of Nrf2-mediated cytoprotective activity in C57BL/6J mouse assessed as increase of HO-1 level in liver at 50 mg/kg, po qd for 7 days measured after 24 hrs of last dose; assay type: functional, organism-based
[23] = molecular target: T1, Nuclear factor erythroid 2-related factor 2 (Homo sapiens); assay: Activation of Nrf2 in human HSC3-ARE9 cells assessed as increase of ARE-mediated ABCC3 mRNA expression at 50 uM after 24 hrs by RT-PCR analysis relative to control; assay type: cell-based
[24] = molecular target: T1, Nuclear factor erythroid 2-related factor 2 (Homo sapiens); assay: Activation of Nrf2 in human HSC3-ARE9 cells assessed as increase of ARE-mediated luciferase expression at 50 uM after 24 hrs relative to control; assay type: cell-based
[25] = molecular target: T1, Nuclear factor erythroid 2-related factor 2 (Homo sapiens); assay: Activation of Nrf2 in human HSC3-ARE9 cells assessed as increase of ARE-mediated Prx1 protein expression after 24 hrs by Western blot analysis; assay type: cell-based

Activity [1]: Dose-dependent effect
Activity [2]: Active
Activity [4]: inactive
fold change (FC) [5]: 1.4
fold change (FC) [6]: 1.3
fold change (FC) [7]: 1.6
fold change (FC) [9]: 1.6
Activity [10]: Dose-dependent effect
EC50 [11]: > 400 µM
fold change (FC) [12]: 1.5
Activity [13]: Dose-dependent effect
fold change (FC) [14]: 1.3
Activity [15]: 126%
Activity [16]: Active
Activity [17]: inactive
Activity [18]: Dose-dependent effect
fold change (FC) [21]: 1.2
fold change (FC) [23]: 1.3
fold change (FC) [24]: 3.45
Activity [25]: Dose-dependent effect
Compound: O=c1oc2ccccc2cc1OC/C(=N\O)c1ccccc1
Activity [3]: Non-toxic
inhibition (HSC-3): Active
Activity (Mus musculus [8]): Active
Activity (Mus musculus [19]): Active
Activity (Mus musculus [20]): Non-toxic
Activity (Mus musculus [22]): Active
